In patent US6071966A, “1-amino-alkylcyclohexane NMDA receptor antagonists” (Merz + Co. GmbH & Co., priority 1998, dated 2000):

Assays:
[1] = i.p.; Table 8
[2] = system: rotarod performance in mice; assay: Rotarod test (motor coordination, ataxia); type: in vivo; details: i.p., Table 8
Description: (§1) All compounds were dissolved in 0.9% saline.
(§2) The MES test was performed together with tests for myorelaxant action (traction reflex) and motor coordination (rotarod). For the traction reflex test mice were placed with their forepaws on a horizontal rod and were required to place all 4 paws on the wire within 10 seconds. To test ataxia (motor coordination) mice were placed on rotarod (5 rpm) and were required to remain on the rod for 1 minute. […] These tests were followed by MES (100 Hz, 0.5 second shock duration, 50 mA shock intensity, 0.9 ms impulse duration, Ugo Basile) applied through corneal electrodes. The presence of tonic convulsions was scored (tonic extension of hind paws with minimum angle to the body of 90°). The aim was to obtain ED50 s for all parameters scored (anticonvulsive activity and motor side effects) with use of the Litchfield Wilcoxon test for quantal dose responses. Division of the ED50 for side effects (ataxia or myorelaxation) by the ED50 for antagonism of electroshock convulsions was used as a therapeutic index (TI).
(§3) Pearson product moment correlation analysis (Sigma Stat, Jandel Scientific) was used to compare in vitro potencies and in vivo anticonvulsant activity.

[3] = system: traction reflex in mice; assay: Traction reflex test (myorelaxant action); type: in vivo; details: i.p., Table 8
Description: (§4) NMR female mice (18-28 g) housed 5 per cage were used for the maximal electroshock (MES) and motor impairment tests. […] All compounds were dissolved in 0.9% saline.
as §2, with “(TI). […]” for “(TI).”

[4] = Rotarod test (motor coordination, ataxia); type: in vivo; details: mouse, rotarod versus mes, ip; mice, i.p.; Table 8; read-out: TI Rot. (ED50 rotarod failure / ED50 MES)
Description: as §1, §2, §3

[5] = Traction reflex test (myorelaxant action); type: in vivo; details: mouse, traction reflex versus mes, ip; mice, i.p.; Table 8; read-out: TI Tract. (ED50 traction reflex impairment / ED50 MES)
Description: as §4
as §2, with “(TI). […]” for “(TI).”

[6] = system: cortical neurones; assay: Excitotoxicity: glutamate toxicity in cultured cortical neurones (MTT test); type: cell-based, rat; details: words
Description: Cortical neurones were obtained from cerebral cortices of 17/18 day old fetal rats (Wistar), in general following the dissociation procedure described by. After short trypsinization and gentle trituration with fire-polished Pasteur pipettes, the cell suspension was washed by centrifugation. Cells were suspended in serum-free Neurobasal medium with B27 supplement (GIBCO) before plating onto poly-L-lysine (Sigma; 0.2mg/ml, 20 h, 4° C.) and laminin (Sigma; 2 μg/ml, 1h, 37° C.)-coated 96-well plates (Falcon, Primaria) at a density of 5×10^4 cells/well. Cortical neurones were maintained at 37° C. in humidified 10% CO2 /90% air. […]
Exposure to EAA was performed in serum-free Neurobasal medium containing 100 μM glutamate and the drug to be tested. After 20 h of incubation, the cytotoxic effect was morphologically examined under a phase contrast microscope and biochemically quantified by measuring cell viability with the MTT test (Promega). […] These samples were then read using an Elisa plate reader (Thermomax, MWG Biotech) at a wavelength of 570 nm. […]
IC50 s in patch clamp, excitotoxicity, and binding studies were calculated according to the four parameter alogistic equation using the Grafit computer program (Erithacus Software, England). Ki value for binding studies were then determined according to Cheng and Prusoff. […]

[7] = Solubility (analytical certificates); type: physicochemical
[8] = target: NMDA receptor; assay: [3H]-(+)-MK-801 receptor binding to rat cortical membranes; details: read-out: [3H]MK-801 IC50, [3H]-(+)-MK-801 5 nM, Table 7
Description: Male Sprague-Dawley rats (200-250 g) were decapitated and their brains were removed rapidly. The cortex was dissected and homogenized in 20 volumes of ice-cold 0.32 M sucrose using a glass-Teflon homogenizer. The homogenate was centrifuged at 1000×g for 10 minutes. The pellet was discarded and the supernatant centrifuged at 20,000×g for 20 minutes. The resulting pellet was re-suspended in 20 volumes of distilled water and centrifuged for 20 minutes at 8000×g. Then the supernatant and the buffy coat were centrifuged three times (48,000×g for 20 minutes) in the presence of 50 mM Tris-HCl, pH 8.0. All centrifugation steps were carried out at 4° C. After resuspension in 5 volumes of 50 mM Tris-HCl, pH 8.0 the membrane suspension was frozen rapidly at -80° C. On the day of assay the membranes were thawed and washed four times by resuspension in 50 mM Tris-HCl, pH 8.0 and centrifugation at 48,000×g for 20 minutes. The final pellet was suspended in assay buffer. The amount of protein in the final membrane preparation was determined according to the method of Lowry with some modifications. The final protein concentration used for our studies was between 250-500 μg/ml.
Membranes were re-suspended and incubated in 50 mM Tris-HCl, pH 8.0. […] Incubations were terminated using a Millipore filter system. The samples were rinsed three times with 2.5 ml ice cold assay buffer over glass fiber filters obtained from Schleicher & Schuell under a constant vacuum. Filtration was performed as rapidly as possible. Following separation and rinse, the filters were placed into scintillation liquid (5 ml; Ultima Gold) and radioactivity retained on the filters was determined with a conventional liquid scintillation counter (Hewlett Packard, Liquid Scintillation Analyser).
IC50 s in patch clamp, excitotoxicity, and binding studies were calculated according to the four parameter alogistic equation using the Grafit computer program (Erithacus Software, England). Ki value for binding studies were then determined according to Cheng and Prusoff. Binding values presented are means ±SEM of 3-5 determinations (each performed in duplicate).

[9] = system: MES-induced convulsions in mice; assay: Anticonvulsive activity: maximal electroshock (MES) test; type: in vivo; details: i.p., Table 8, 30 min
Description: as §4, §2, §3

| SMILES | Min Lethality [1] [mg/kg] | TI Rot. (ED50 rotarod failure / ED50 MES) [2] | TI Tract. (ED50 traction reflex impairment / ED50 MES) [3] | selectivity ratio [4] | selectivity ratio [5] | neuroprotection in vitro [6] | Solubility [7] | IC50 [8] [µM] | MES ED50 [9] [mg/kg i.p.] |
| --- | --- | --- | --- | --- | --- | --- | --- | --- | --- |
| CC1(C)CC(C)(C)CC(C)(N2CCCC2)C1.Cl [MRZ 2/705, N-(1,3,3,5,5-Pentamethylcyclohexyl) pyrrolidine hydrochloride] | > 50 | 5.4 | 3.9 | – | – | – | – | – | – |
| CC1(C)CC(C)(C)CC(C)(N)C1 [Mrz 2/579, 1-amino-1,3,3,5,5-pentamethylcyclohexane] | 108 | – | – | 5 | 2.9 | most potent | – | – | – |
| CC1CC(C)CC(C)(N)C1 (stereo not shown) [Mrz 2/616, 1-amino-1,3,5-trimethylcyclohexane] | > 50 | – | – | 1.4 | 1 | – | soluble in water, chloroform | 150 | – |
| CC1(C)CCCC(C)(N)C1 (stereo not shown) [Mrz 2/621] | > 60 | 1.5 | 1.8 | – | – | – | – | – | 36.9 |
